For assay [1], the system named is SAOS-2. The assay can be described thus: Antiproliferative activity against human Saos2 cells assessed as reduction in cell viability at 10 uM incubated for 72 hrs by MTT assay relative to control. The assay is classed as functional. Particulars: SAOS-2, 72 h. In general terms: Formazan colour is commonly taken as a measure of viable cells.
Assay [2] has as its system SAOS-2. As to the kind of experiment: Antiproliferative activity against human Saos2 cells assessed as reduction in cell viability incubated for 72 hrs by MTT assay. The assay is classed as functional, cell-based. Particulars: SAOS-2, 72 h.
The target of assay [3] is T1, [Pyruvate dehydrogenase (acetyl-transferring)] kinase isozyme 2, mitochondrial (Homo sapiens, UniProt Q15119). The assay can be described thus: Inhibition of PDK2 (unknown origin) using PDCE1 as substrate at 5 uM incubated for 30 mins by kinase-Glo reagent based luminescence assay relative to control. (In general: Kinase-Glo reads ATP consumption through a luciferase reaction.)

For assay [4], the system named is MG-63. As to the kind of experiment: Antiproliferative activity against human MG63 cells assessed as reduction in cell viability incubated for 72 hrs by MTT assay. The assay is classed as functional, cell-based. Particulars: MG-63, 72 h.
The test system of assay [5] is MG-63. As to the kind of experiment: Antiproliferative activity against human MG63 cells assessed as reduction in cell viability at 10 uM incubated for 72 hrs by MTT assay relative to control. Particulars: MG-63, 72 h. The class given is functional.
For assay [6], the target named is T1, [Pyruvate dehydrogenase (acetyl-transferring)] kinase isozyme 2, mitochondrial. As to the kind of experiment: Inhibition of PDK2 (unknown origin) using PDCE1 as substrate incubated for 30 mins by kinase-Glo reagent based luminescence assay.
For assay [7] the target is unchanged. As to the kind of experiment: Inhibition of PDK2 (unknown origin).
Assay [8] is filed under the species Homo sapiens. The assay can be described thus: Selectivity index, ratio of EC50 of PDK1 (unknown origin) to EC50 of PDK2 (unknown origin).
For assay [9], the species on record is Homo sapiens. The assay can be described thus: Selectivity index, ratio of EC50 of PDK3 (unknown origin) to EC50 of PDK2 (unknown origin).
The species named for assay [10] is Homo sapiens. The assay can be described thus: Selectivity index, ratio of EC50 of PDK4 (unknown origin) to EC50 of PDK2 (unknown origin).
In assay [11] the target is [Pyruvate dehydrogenase (acetyl-transferring)] kinase isozyme 4, mitochondrial (Homo sapiens, UniProt Q16654). As to the kind of experiment: Inhibition of PDK4 (unknown origin) using PDCE1 as substrate incubated for 30 mins by kinase-Glo reagent based luminescence assay.
The target in assay [12] is [Pyruvate dehydrogenase (acetyl-transferring)] kinase isozyme 3, mitochondrial (Homo sapiens, UniProt Q15120). The assay can be described thus: Inhibition of PDK3 (unknown origin) using PDCE1 as substrate incubated for 30 mins by kinase-Glo reagent based luminescence assay.
Assay [13] addresses [Pyruvate dehydrogenase (acetyl-transferring)] kinase isozyme 1, mitochondrial (Homo sapiens, UniProt Q15118). The assay can be described thus: Inhibition of PDK1 (unknown origin) using PDCE1 as substrate incubated for 30 mins by kinase-Glo reagent based luminescence assay.
For assay [14], the target named is T1, [Pyruvate dehydrogenase (acetyl-transferring)] kinase isozyme 2, mitochondrial. The assay can be described thus: Inhibition of PDK2 in human MG63 cells assessed as reduction in lactate formation at 2 to 10 uM incubated for 4 hrs. The assay is classed as cell-based.
For assay [15] the target is unchanged. As to the kind of experiment: Binding affinity to PDK2 (unknown origin) assessed as dissociation constant by ITC analysis. Background: In ITC the heat of successive injections is recorded.
The target is the same in assay [16]. The assay can be described thus: Inhibition of PDK2 in human MG63 cells assessed as reduction in PDC phosphorylation at 2 or 5 uM incubated for 12 hrs by Western blot analysis. The assay is classed as cell-based.
Assay [17] has the same target. The assay can be described thus: Inhibition of recombinant human N-terminal His6-tagged SUMO-fused PDK2 expressed in Escherichia coli BL-21 cells preincubated for 15 mins followed by addition of [gamma33-ATP] and measured after 90 secs by Scintillation counting method.

In general, inhibition refers to the relative decrease from the control value, in per cent. For orientation: IC50 means the concentration that inhibits the measured activity by half. A word on the EC50: it is the concentration needed to bring the measured effect to its halfway point. Usually Kd stands for the concentration at which binding is half-saturated.

Activity calls are given as the source filed them. No cut-off for these calls is given here.

Chain of [Pyruvate dehydrogenase (acetyl-transferring)] kinase isozyme 1, mitochondrial (Q15118 whole entry): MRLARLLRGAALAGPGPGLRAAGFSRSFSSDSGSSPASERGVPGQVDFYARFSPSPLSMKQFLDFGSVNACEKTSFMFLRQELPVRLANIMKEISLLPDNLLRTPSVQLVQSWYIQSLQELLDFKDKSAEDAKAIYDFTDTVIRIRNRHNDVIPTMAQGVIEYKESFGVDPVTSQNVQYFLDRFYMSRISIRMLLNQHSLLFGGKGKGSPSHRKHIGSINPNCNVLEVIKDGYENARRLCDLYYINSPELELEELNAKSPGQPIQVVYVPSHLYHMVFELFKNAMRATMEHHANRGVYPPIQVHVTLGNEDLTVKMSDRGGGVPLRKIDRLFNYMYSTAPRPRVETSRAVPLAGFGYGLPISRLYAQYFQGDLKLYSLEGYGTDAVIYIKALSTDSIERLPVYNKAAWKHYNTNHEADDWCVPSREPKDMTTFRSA
Chain of [Pyruvate dehydrogenase (acetyl-transferring)] kinase isozyme 4, mitochondrial (Q16654 whole entry): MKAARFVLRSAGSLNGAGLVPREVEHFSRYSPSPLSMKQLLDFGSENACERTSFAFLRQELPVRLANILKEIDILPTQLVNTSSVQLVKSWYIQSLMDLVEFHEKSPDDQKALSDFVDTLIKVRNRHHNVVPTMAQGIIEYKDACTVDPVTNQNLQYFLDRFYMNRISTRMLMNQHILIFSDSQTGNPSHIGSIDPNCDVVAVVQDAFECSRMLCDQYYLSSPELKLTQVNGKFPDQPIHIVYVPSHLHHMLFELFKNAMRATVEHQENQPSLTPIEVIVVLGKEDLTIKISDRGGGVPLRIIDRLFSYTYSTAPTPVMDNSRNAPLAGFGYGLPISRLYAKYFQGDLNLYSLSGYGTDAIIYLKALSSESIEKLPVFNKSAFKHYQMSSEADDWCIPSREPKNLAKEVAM
Chain of [Pyruvate dehydrogenase (acetyl-transferring)] kinase isozyme 3, mitochondrial (Q15120 whole entry): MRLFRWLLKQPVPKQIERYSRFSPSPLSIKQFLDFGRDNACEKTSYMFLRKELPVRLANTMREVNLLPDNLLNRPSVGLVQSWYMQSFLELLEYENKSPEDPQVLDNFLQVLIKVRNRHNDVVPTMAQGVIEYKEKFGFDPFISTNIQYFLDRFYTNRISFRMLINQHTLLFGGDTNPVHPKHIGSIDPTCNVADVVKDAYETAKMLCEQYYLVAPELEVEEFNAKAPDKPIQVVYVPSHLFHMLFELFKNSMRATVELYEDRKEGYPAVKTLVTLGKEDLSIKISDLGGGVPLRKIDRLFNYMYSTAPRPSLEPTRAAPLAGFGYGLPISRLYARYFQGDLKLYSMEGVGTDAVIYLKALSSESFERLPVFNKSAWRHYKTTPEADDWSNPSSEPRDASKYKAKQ

As to `COc1cccc(C(=O)NCc2nc(N3CCCC3)nc(N3CCOCC3)n2)c1`, the inhibition at 10 µM with SAOS-2 [1] was found to be 68.5%; in the assay on MG-63 [5] it was 53.8%. Besides, the figures for the 50% inhibitory concentration (IC50) with SAOS-2 [2] and with MG-63 [4] were 8.1 µM and 9.2 µM, respectively. In addition, in [3], the inhibition entry was “inactive”.
`CC(C)NC(=O)COc1coc(CN2CCN(c3ccccc3)CC2)cc1=O`: the values for the inhibition at 10 µM in the assay with SAOS-2 [1] and in the assay on MG-63 [5] were 74.5% and 70.6%, respectively. The IC50 in the assay with SAOS-2 [2] was determined as 5.3 µM; in the assay with MG-63 [4] it was 5.8 µM. Further, the EC50 in assay [6] was determined as 3.8 µM. For the same compound, the inhibition in [3] is 64.3%.
For `Cc1ccccc1OCC(O)Cn1c(C2CC(=O)N(C(C)(C)C)C2)nc2ccccc21` (centres undefined), the inhibition at 10 µM with SAOS-2 [1] worked out at 59.3%; in the assay on MG-63 [5] it was 72.8%. Also, the values for the IC50 with SAOS-2 [2] and with MG-63 [4] were 8.9 µM and 7.7 µM, respectively. Further, the inhibition result in assay [3] is “inactive”.
Take `Cc1cc(=O)n2nc(N3CCN(C(=O)Cc4c[nH]c5ccccc45)CC3)nc2[nH]1`: the values for the inhibition at 10 µM in the assay with SAOS-2 [1] and in the assay on MG-63 [5] were 75.9% and 60.8%, respectively. In addition, the values for the IC50 in the assay on SAOS-2 [2] and with MG-63 [4] were 7.6 µM and 9.4 µM, respectively. In assay [3], the inhibition entry was “inactive”.
In the same order, the values of `O=C(CCn1ccc(=O)[nH]c1=O)N1CCC(Cc2n[nH]c(=O)n2-c2ccccc2F)CC1` are 48.9%, 62.7%, more than 10 µM, 7.1 µM and “inactive”.
For the compound `O=C(C1=C(CO)C(=O)N(CCCN2CCOCC2)[C@H]1c1ccncc1)c1cccs1`, the inhibition at 10 µM amounted to 79.3% with SAOS-2 [1] and 86.9% in the assay with MG-63 [5]. Further, the IC50 worked out at 2 µM in the assay with SAOS-2 [2] and 1.2 µM in the assay on MG-63 [4]. In assay [3], the inhibition result is “inactive”.
For the compound `CN(C)C(=O)c1ccc(S(=O)(=O)c2ccc(NC(=O)[C@@](C)(O)C(F)(F)F)c(Cl)c2)cc1`, the half-maximal effective concentration (EC50) in assay [7] amounted to 0.08 µM.
As for `CSc1nc(N2CCOCC2)c2cnn(CCNC(=O)C3CCCC3)c2n1`, the inhibition at 10 µM was determined as 45.1% with SAOS-2 [1] and 53.3% with MG-63 [5]. Also, the IC50 in the assay with SAOS-2 [2] and in the assay on MG-63 [4] was more than 10 µM throughout. The inhibition result in assay [3] is “inactive”.
On to `CN(C)c1cncc(OC2CCN(C(=O)Cc3c[nH]c4ccccc34)C2)n1` (centres undefined), for which the inhibition at 10 µM in the assay on SAOS-2 [1] stood at 87.7%; in the assay with MG-63 [5], 83.9%. The values for the IC50 in the assay on SAOS-2 [2] and with MG-63 [4] were 2.2 µM and 2.8 µM, respectively. Besides, the inhibition entry in [3] is “inactive”.
On the same counts, the results for `COc1ccc(N2CCn3c2nnc(C(=O)NCCCN(C)C)c3=O)cc1` are 65.4%, 71.1%, 7.9 µM, 4.9 µM and “inactive”.
On to `CC(C)NC(=O)COc1coc(CN2CCN(c3ccccc3F)CC2)cc1=O`, for which the Ratio EC50 in the assay filed under Homo sapiens [8] amounted to 10.6; in the assay filed under Homo sapiens [9], 21.9; in the assay filed under Homo sapiens [10], 60.9. The inhibition at 10 µM in the assay on SAOS-2 [1] came to 75.3%; in the assay on MG-63 [5] it was 78.6%. Besides, the IC50 with SAOS-2 [2] was 5.6 µM; in the assay with MG-63 [4], 4.7 µM. Moreover, the EC50 worked out at 1.1 µM in assay [6], 67 µM in [11], 24.5 µM in assay [12] and 11.7 µM in assay [13]. The same compound yielded an inhibition in assay [3] of 79.7%. Besides, the inhibition result in assay [14] and in assay [16] was “Active” throughout. For the same compound, in [15], the Kd came out at 2.35 µM.
Consider `Cc1cc(N2CCCCC2)nc(CNC(=O)CNC(=O)c2ccccc2)n1`, for which the inhibition at 10 µM in the assay with SAOS-2 [1] was 77.6%; in the assay with MG-63 [5], 88.5%. Also, the values for the IC50 with SAOS-2 [2] and with MG-63 [4] were 4.8 µM and 2.7 µM, respectively. The inhibition in assay [3] was determined as 20.1%.
For the compound `O=C(CCn1ccc(=O)[nH]c1=O)N1CCN(C2=CC3CCCCC3N=N2)CC1` (centres undefined), the inhibition at 10 µM amounted to 86.7% in the assay on SAOS-2 [1] and 84.4% with MG-63 [5]. For the same compound, the figures for the IC50 with SAOS-2 [2] and in the assay on MG-63 [4] were 1.8 µM and 2.1 µM, respectively. Also, in assay [3], the inhibition entry was “inactive”.
Turning to `O=S(=O)(c1ccc(O)cc1O)N1Cc2cc(O)cc(O)c2C1`, the EC50 in assay [17] turned out to be 0.456 µM.
As to `O=C(COc1coc(CN2CCN(c3cccc(Cl)c3)CC2)cc1=O)NC1CCCC1`, the values for the inhibition at 10 µM in the assay on SAOS-2 [1] and in the assay with MG-63 [5] were 65.3% and 62.3%, respectively. Further, the results for the IC50 in the assay on SAOS-2 [2] and in the assay with MG-63 [4] were 7.7 µM and 8.5 µM, respectively. In assay [3], the inhibition is 47.5%.
With `CNC(=O)COc1coc(CN2CCN(c3ccccc3)CC2)cc1=O`, the inhibition at 10 µM in the assay with SAOS-2 [1] was determined as 71.2%; in the assay with MG-63 [5] it was 66.1%. Further, the figures for the IC50 in the assay with SAOS-2 [2] and with MG-63 [4] were 6.7 µM and 7.9 µM, respectively. This compound also had an EC50 in [6] of 5.2 µM. In addition, in [3], the inhibition stood at 54.1%.

Source of the values: ChEMBL document CHEMBL4396967, “In vitro cytotoxicity screening to identify novel anti-osteosarcoma therapeutics targeting pyruvate dehydrogenase kinase 2” (Bioorg Med Chem Lett, 2019).
